US8114406B2, “Peptides and their utility in modulation of behavior of cells expressing α3β1 integrins” (The United States of America as represented by the …, priority 1999, dated 2012)
Where no end group is shown, it is not given here.

Legend:
Assay type in all cases: cell-based, human
HDME cells = test: HDME cell spreading on coated substrates
Protocol: Spreading was determined microscopically for cells with no additions, in the presence of 10 μM peptide 678, or in the presence of 30 μM of the control peptide 690. Results are presented as mean±SD, n=3. […] The percent spread cells was determined at 60 min.
(§1) Adhesion assays of cells other than small cell lung carcinoma (SCLC)-Adhesion was measured on polystyrene or glass substrates coated with peptides or proteins as previously described (Guo et al., 1992). Peptides dissolved in PBS at 0.4 to 50 μM were incubated in polystyrene microliter plate wells overnight at 4° C. The wells were washed 3 times with distilled water. Adsorbed peptide was quantified using the BCA assay (Pierce Chemical) measuring absorbance at 570 and 630 nm as described by the supplier's protocol. The assay for adsorption was calibrated using purified peptide in solution as a standard. After blocking with 1% BSA in Dulbecco's PBS, adhesion assays were performed by adding cells suspended in DMEM (BAE cells) or medium 199 (human cells) containing 1 mg/ml BSA. Cell attachment and spreading was quantified microscopically.

MDA-MB-435 cells [1] = test: MDA-MB-435 cell chemotaxis in modified Boyden chambers; settings: peptide in lower well; 7 h
Protocol: FIGS. 10A and 10B display the measurement of MDA-MB-435 cell chemotaxis. Panel A: Dose-dependence for stimulation of MDA-MB-435 cell motility by peptide 678 added to the lower well of a modified Boyden chamber. Cells migrated to the lower surface of an 8 μm pore polycarbonate filter were quantified microscopically after 7 h, mean±SD, n=3 for a representative experiment. […] Chemotaxis of untreated cells (striped bars) or cells treated with 10 nM IGF1 in the upper chamber (solid bars) was determined after 7 h and is presented as mean±S.D., n=3.

MDA-MB-435 cells [2] = test: MDA-MB-435 cell spreading on matrix proteins, inhibition by soluble peptide; settings: 10 μM peptide 678 (FIG. 4A)
Protocol: FIGS. 4A and 4B are graphs illustrating the inhibition of breast carcinoma cell spreading on matrix proteins by peptide 678. […] Cell spreading is presented as mean±SD, n=3. Panel B: Inhibition of MDA-MB-435 cell attachment to surfaces coated with 10 μM peptide 678 (●) or laminin peptide GD6 (◯) was measured in the presence of the indicated concentrations of peptide 678 added in solution.
as §1

FQGVLQNVRFVF [Peptide 678]
percent spread HDME cells on immobilized substrate (HDME cells; cells from sparse culture): 28%
percent spread HDME cells on immobilized substrate (HDME cells; cells harvested from a confluent monolayer): No spreading
concentration of maximal chemotactic response (MDA-MB-435 cells [1]): 10 µM
inhibition of MDA-MB-435 spreading on TSP1 and murine laminin-1/entactin (MDA-MB-435 cells [2]): strongly inhibited
inhibition of MDA-MB-435 spreading on fibronectin or type IV collagen (MDA-MB-435 cells [2]): did not inhibit
